Experimental data from patent EP0195316A1, “Quinolonecarboxylic acid derivatives” (KYORIN PHARMACEUTICAL CO., LTD., priority 1985, dated 1986).
Values after ≈ are worked out from the molar mass of the structure shown.

How the values were obtained:
Test in all cases: MIC, in vitro antibacterial activity (standard strains)
Assay type in all cases: cell-based
P. morganii IID 602 = settings: Morganella morganii, IID602; P. morganii IID 602, 10^6 cells/ml, Gram -
[1] = system: Salmonella enteritidis IID 604; settings: Salmonella enterica; Salmonella enteritidis IID 604, 10^6 cells/ml, Gram -; read-out: MIC
[2] = system: Enterobacter cloacae IID 977; settings: IID977; Enterobacter cloacae IID 977, 10^6 cells/ml, Gram -
[3] = system: Serratia marcescens IID 618; settings: IID618; Serratia marcescens IID 618, 10^6 cells/ml, Gram -
B. fragilis 0558 = settings: Bacteroides fragilis; B. fragilis 0558, 10^6 cells/ml, Gram -
[4] = system: Citrobacter freundii IID 976; settings: IID976; Citrobacter freundii IID 976, 10^6 cells/ml, Gram -; read-out: MIC
[5] = system: Klebsiella pneumoniae KY(GN)6445; settings: Klebsiella pneumoniae KY(GN)6445, 10^6 cells/ml, Gram -; read-out: MIC
[6] = system: Bacteroides fragilis GM 7000; settings: GM7000; Bacteroides fragilis GM 7000, 10^6 cells/ml, Gram -
[7] = system: Streptococcus pyogenes (S-8); settings: Streptococcus pyogenes (S-8), 10^6 cells/ml, Gram +; read-out: MIC
[8] = system: Clostridium difficile I-E; settings: Clostridioides difficile, 10^6 cells/ml, Gram +
E. coli ATCC 10536 = settings: Escherichia coli, ATCC10536; E. coli ATCC 10536, 10^6 cells/ml, Gram -; read-out: MIC
E. faecalis IID 682 = settings: Enterococcus faecalis, IID682; E. faecalis IID 682, 10^6 cells/ml, Gram +
F. varium KYA 8501 = settings: Fusobacterium varium, KYA8501; F. varium KYA 8501, 10^6 cells/ml, Gram -; read-out: MIC
[9] = system: Staphylococcus aureus 209 P; settings: 10^6 cells/ml, Gram +
[10] = system: Acinetobacter anitratus IID 876; settings: Acinetobacter calcoaceticus, IID876; Acinetobacter anitratus IID 876, 10^6 cells/ml, Gram -
[11] = system: Escherichia coli NIHJ JC-2; settings: NIHJJC2; Escherichia coli NIHJ JC-2, 10^6 cells/ml, Gram -; read-out: MIC
S. pyogenes IID 692 = settings: Streptococcus pyogenes, IID692; S. pyogenes IID 692, 10^6 cells/ml, Gram +
[12] = system: S. aureus IID 670 (Terajima); settings: Staphylococcus aureus, IID670, 10^6 cells/ml, Gram +
K. pneumoniae 1-220S = settings: Klebsiella pneumoniae, 1220S; K. pneumoniae 1-220S, 10^6 cells/ml, Gram -; read-out: MIC
[13] = system: B. thetaiotaomicron (0661); settings: Bacteroides thetaiotaomicron; B. thetaiotaomicron (0661), 10^6 cells/ml, Gram -; read-out: MIC
S. pneumoniae IID 552 = settings: Streptococcus pneumoniae, IID552; S. pneumoniae IID 552, 10^6 cells/ml, Gram +; read-out: MIC
B. fragilis 8503 = settings: Bacteroides fragilis; B. fragilis 8503, 10^6 cells/ml, Gram -
[14] = system: Alcaligenes faecalis 0104002; settings: Alcaligenes faecalis 0104002, 10^6 cells/ml, Gram -; read-out: MIC
[15] = system: Proteus vulgaris IFO 3167; settings: IFO3167; Proteus vulgaris IFO 3167, 10^6 cells/ml, Gram -; read-out: MIC
Shigella sonnei IID 969 = settings: IID969; Shigella sonnei IID 969, 10^6 cells/ml, Gram -
Procedure: Minimal inhibitory concentrations (MICs) were determined in accordance with the method recommended by Japan Society of Chemotherapy.

[16] = system: Bacillus subtilis PCI 219; settings: PCI219; Bacillus subtilis PCI 219, 10^6 cells/ml, Gram +
P. mirabilis IID 994 = settings: Proteus mirabilis, IID994; P. mirabilis IID 994, 10^6 cells/ml, Gram -; read-out: MIC
P. aeruginosa IFO 12689 = settings: Pseudomonas aeruginosa, IFO12689; P. aeruginosa IFO 12689, 10^6 cells/ml, Gram -
S. epidermidis IID 866 = settings: Staphylococcus epidermidis, IID866; S. epidermidis IID 866, 10^6 cells/ml, Gram +
B. fragilis 25285 = settings: Bacteroides fragilis; B. fragilis 25285, 10^6 cells/ml, Gram -
[17] = system: Yersinia enterocolitica IID 981; settings: IID981; Yersinia enterocolitica IID 981, 10^6 cells/ml, Gram -

CCNCC1CCN(c2c(F)cc3c(=O)c(C(=O)O)cn(CC)c3c2F)C1 (stereo not shown) [CI-934, 1-Ethyl-7-(3-ethylaminomethyl-1-pyrrolidinyl)-6,8-difluoro-1,4-dihydro-4-oxo-3-quinolinecarboxylic acid]
MIC (P. morganii IID 602): 0.39 µg/mL (≈ 1.03 µM) | MIC [1]: 0.39 µg/mL (≈ 1.03 µM) | MIC [2]: 0.78 µg/mL (≈ 2.06 µM) | MIC [3]: 0.39 µg/mL (≈ 1.03 µM) | MIC (B. fragilis 0558): 3.13 µg/mL (≈ 8.25 µM) | MIC [4]: 0.2 µg/mL (≈ 0.527 µM) | MIC [5]: 0.2 µg/mL (≈ 0.527 µM) | MIC [6]: 6.25 µg/mL (≈ 16.5 µM) | MIC [7]: 0.2 µg/mL (≈ 0.527 µM) | MIC [8]: 3.13 µg/mL | MIC (E. coli ATCC 10536): 0.1 µg/mL (≈ 0.264 µM) | MIC (E. faecalis IID 682): 0.39 µg/mL | MIC (F. varium KYA 8501): 6.25 µg/mL (≈ 16.5 µM) | MIC [9]: 0.1 µg/mL | MIC [10]: 0.39 µg/mL (≈ 1.03 µM) | MIC [11]: 0.1 µg/mL (≈ 0.264 µM) | MIC (S. pyogenes IID 692): 0.39 µg/mL | MIC [12]: 0.1 µg/mL | MIC (K. pneumoniae 1-220S): 0.39 µg/mL (≈ 1.03 µM) | MIC [13]: 25 µg/mL (≈ 65.9 µM) | MIC (S. pneumoniae IID 552): 0.39 µg/mL (≈ 1.03 µM) | MIC (B. fragilis 8503): 6.25 µg/mL (≈ 16.5 µM) | MIC [14]: 6.25 µg/mL (≈ 16.5 µM) | MIC [15]: 0.05 µg/mL (≈ 0.132 µM) | MIC (Shigella sonnei IID 969): 0.1 µg/mL (≈ 0.264 µM) | MIC [16]: 0.05 µg/mL | MIC (P. mirabilis IID 994): 0.2 µg/mL (≈ 0.527 µM) | MIC (P. aeruginosa IFO 12689): 6.25 µg/mL (≈ 16.5 µM) | MIC (S. epidermidis IID 866): 0.1 µg/mL | MIC (B. fragilis 25285): 3.13 µg/mL (≈ 8.25 µM) | MIC [17]: 0.39 µg/mL (≈ 1.03 µM)
